ChEMBL document CHEMBL1145668, “The Effect of Ultraviolet Light on the Toxicity of Natural Products Toward the Eggs of Drosophila melanogaster” (J Nat Prod, 1983)
The source made the active and inactive calls. No cut-off for these calls is given here.

Key:
[1] = Photoovicidal activity against Drosophila melanogaster egg pretreated 1 hr before UV light irradiation for 45 mins by paper disk method; format: ADME; details: 0.75 h
[2] = Increase in ovicidal activity against Drosophila melanogaster egg incubated in dark by paper disk method; format: ADME
[3] = Ovicidal activity against Drosophila melanogaster egg by paper disk method; format: ADME
Escherichia coli = experiment: Phototoxicity against Escherichia coli B; format: functional, organism-based
Saccharomyces cerevisiae = experiment: Phototoxicity against Saccharomyces cerevisiae; format: functional, organism-based
[4] = Ratio of ID50 for Drosophila melanogaster egg to ID50 for Drosophila melanogaster egg irradiated with UV light for 45 mins; format: ADME
Cyberlindnera jadinii = experiment: Phototoxicity against Candida utilis; format: functional, organism-based
Drosophila melanogaster = experiment: Phototoxicity against Drosophila melanogaster larvae; format: functional, organism-based
Aedes aegypti = experiment: Phototoxicity against Aedes aegypti larvae; format: functional, organism-based

For `C#Cc1ccc(-c2ccccc2)s1`, the LD50 [1] was 0.025 microg/cm2, the Activity [2] was “Not Active” and the LD50 [3] was 4.6 microg/cm2. For the same compound, the Activity (Escherichia coli) was “Active”, the Activity (Saccharomyces cerevisiae) was “Active” and the selectivity ratio at 0.75 h [4] was 200. For the same compound, the Activity (Cyberlindnera jadinii) was “Active”, the Activity (Drosophila melanogaster) was “Active” and the Activity (Aedes aegypti) was “Active”.
For `CC#Cc1ccc(-c2ccccc2)s1`, the LD50 [1] was 0.013 microg/cm2, the Activity [2] was “Not Active” and the LD50 [3] was 2.9 microg/cm2. The Activity (Escherichia coli) was “Active”, the Activity (Saccharomyces cerevisiae) was “Active” and the selectivity ratio at 0.75 h [4] was 225. The Activity (Cyberlindnera jadinii) was “Active”, the Activity (Drosophila melanogaster) was “Active” and the Activity (Aedes aegypti) was “Active”.
In the case of `O=c1ccc2ccccc2o1` [COUMARIN], the LD50 [3] is reported as 23 microg/cm2.
